# Results reported in patent publication EP3964221A1, “ANTIVIRAL AGENTS” (priority 2020, dated 2022).
# Where two headings read alike, the source gives them in different places.
# What was measured:
# Herpes simplex = conditions: added to the assays after infection; cited from earlier work
# [1] = tested on: Respiratory Syncytial Virus (RSV, type long strain); experiment: Curative approach, plaque reduction assay; format: cell-based; conditions: active control at concentrations between 5-50 µg mL^-1
# [2] = tested on: Influenza A virus (Flu A, H1N1); experiment: Curative approach, plaque reduction assay; format: cell-based
# [3] = tested on: Rhinovirus (RV, subtype 14); experiment: Curative approach, plaque reduction assay; format: cell-based; conditions: active control at concentrations between 5-50 µg mL^-1
# [4] = tested on: Respiratory Syncytial Virus (RSV, type long strain); experiment: Virucidal (preventive) approach, pretreatment of cell-free virus, plaque forming units; format: cell-based; conditions: positive control at 0.3%; 2 and 24 h incubation
# [5] = tested on: Adenovirus C (AV, subtype 5); format: cell-based; conditions: positive control at 0.3%
# [6] = tested on: Influenza A virus (Flu A, H1N1); experiment: Virucidal (preventive) approach, pretreatment of cell-free virus, plaque forming units; format: cell-based; conditions: positive control at 0.3%; 2 and 24 h incubation
# [7] = tested on: Rhinovirus (RV, subtype 14); experiment: as above; format: cell-based; conditions: positive control at 0.3%; 2 and 24 h incubation
smiles,measurement,setting,value
"CC12CCC(CC1)C(C)(C)O2 [1,8-cineol]",reduction of Herpes simplex induced plaques,Herpes simplex,30-40%
Nc1nc2c(ncn2COCCO)c(=O)[nH]1 [acyclovir],reduction of Herpes simplex induced plaques,Herpes simplex,100%
C=C1CCC2CC1C2(C)C (stereo not drawn) [β-pinene],reduction of Herpes simplex induced plaques,Herpes simplex,10-20%
"NC(=O)c1ncn([C@@H]2O[C@H](CO)[C@@H](O)[C@H]2O)n1 [Ribavirin, ribavirin]",inhibited plaque formation,[1],70-96%
same,"plaque formation (visual, Fig. 3)",[2]; active control,prevented plaque formation almost completely
same,inhibited plaque formation,[2]; active control at concentrations between 5-50 µg mL^-1,70-96%
same,inhibited plaque formation,[3],70-96%
"CCCCCCCCCCCCOS(=O)(=O)[O-].[Na+] [SDS, Sodium dodecyl sulfate]",lowered infectivity,[4],56-100%
same,lowered infectivity,[5]; 2 h incubation,52%
same,lowered infectivity,[5]; 24 h incubation,63%
same,lowered infectivity,[6],56-100%
same,lowered infectivity,[7],56-100%
CC1=CCC2CC1C2(C)C (stereo not drawn) [α-pinene],reduction of Herpes simplex induced plaques,Herpes simplex,30-40%
C=C(C)[C@H]1CC=C(C)CC1 [limonene],reduction of Herpes simplex induced plaques,Herpes simplex,10-20%
